Patent publication US8987502B2, “Oleanolic acid amidate derivatives, preparation methods and uses thereof” (Hangzhou Bensheng Pharmaceutical Co., Ltd., priority 2011, dated 2015)
In brackets after ≈: the same amount, converted by molar mass.

Tests used:
MGC803 = test: MTT solid tumor cell proliferation inhibition, MGC803; assay type: cell-based, human; conditions: Homo sapiens, MGC-803; for inhibition at 16 µg/mL: MGC803, 16 μg/mL compound, 72 h, read-out: IR (inhibition rate); for IC50: MGC803, 72 h, MTT
Procedure: (§1) Human solid tumor cell lines: Hep-2 (laryngeal carcinoma), A549 (human lung cancer), CaES-17 (esophageal cancer cell), PC-3 (prostate cancer), CNE (nasopharyngeal carcinoma cell), and SK-OV-3 (ovarian cancer cell), all of which are purchased from China Center For Type Culture Collection; RKO (human colon adenocarcinoma cell), MGC 803 (human gastric cancer cell), MG63 (osteosarcoma) and U87 MG (malignant glioma cell), all of which are purchased from Fuxiang Bio-tech Co. Ltd., Shanghai, China; PANC-1 (pancreatic cancer), Hep G2 (human liver cancer cell), Becap37 (human breast cancer cell), and Hela (human cervical cancer cell), all of which are donated by Cancer Research Institute of Zhejiang University, China.
(§2) Obtaining 4000 well-growing human solid tumor cells and inoculating them into wells of a 96-well cell culture plate. The culture medium is DMEM High Glucose cell culture medium containing 10% fetal bovine serum. The plate is placed in a carbon dioxide cell incubator (5% CO2) at 37° C. for 24 hours for incubation. After being added with the amidated oleanolic acid derivatives of different concentrations and mixed uniformly, the plate is placed in a carbon dioxide cell incubator (5% CO2) at 37° C. for 72 hours for incubation. Then the relative number of the living cells is determined by the MTT method. In this experiment, the cell proliferation inhibition rate in control group (not treated with any compound) is set as 0%.

A549 = test: MTT solid tumor cell proliferation inhibition, A549; assay type: cell-based, human; conditions: Homo sapiens; for inhibition at 16 µg/mL: A549, 16 μg/mL compound, 72 h, read-out: IR (inhibition rate); for IC50: A549, 72 h, MTT
Procedure: as §1, §2

RPMI8226 = test: MTT multiple myeloma cell proliferation inhibition, RPMI8226; assay type: cell-based; conditions: Homo sapiens, RPMI-8226; for inhibition at 16 µg/mL: RPMI8226, 16 μg/mL compound, 72 h, read-out: IR (inhibition rate); for IC50: RPMI8226, 72 h, MTT
Procedure: Multiple myeloma cell lines: RPMI8226 (multiple myeloma), purchased from Fuxiang Bio-tech Co. Ltd., Shanghai, China.
(§3) Obtaining 6000 well-growing leukemia cells and inoculating them into wells of a 96-well cell culture plate. The culture medium is the 1640 cell culture medium containing 10% fetal bovine serum. After adding the amidated oleanolic acid derivatives of different concentrations and mixing uniformly, placing the plate in a carbon dioxide cell incubator (5% CO2) at 37° C. and incubated for 72 hours. Then the relative number of viable cells is determined by the MTT method. In this experiment, the cell proliferation inhibition rate in control group (not treated with any compound) is set as 0%.

U87 MG = test: MTT solid tumor cell proliferation inhibition, U87 MG; assay type: cell-based, human; conditions: Homo sapiens, U-87 MG, U87 MG, 72 h; for inhibition at 16 µg/mL: 16 μg/mL compound, read-out: IR (inhibition rate); for IC50: MTT
Procedure: as §1, §2

Hep-2 = test: MTT solid tumor cell proliferation inhibition, Hep-2; assay type: cell-based, human; conditions: Homo sapiens; for inhibition at 16 µg/mL: Hep-2, 16 μg/mL compound, 72 h, read-out: IR (inhibition rate); for IC50: Hep-2, 72 h, MTT
Procedure: as §1, §2

PANC-1 = test: MTT solid tumor cell proliferation inhibition, PANC-1; assay type: cell-based, human; conditions: Homo sapiens; for inhibition at 16 µg/mL: PANC-1, 16 μg/mL compound, 72 h, read-out: IR (inhibition rate); for IC50: PANC-1, 72 h, MTT
Procedure: as §1, §2

CaES-17 = test: MTT solid tumor cell proliferation inhibition, CaES-17; assay type: cell-based, human; conditions: Homo sapiens, CaEs17; for inhibition at 16 µg/mL: CaES-17, 16 μg/mL compound, 72 h, read-out: IR (inhibition rate); for IC50: CaES-17, 72 h, MTT
Procedure: as §1, §2

PC-3 = test: MTT solid tumor cell proliferation inhibition, PC-3; assay type: cell-based, human; conditions: Homo sapiens; for inhibition at 16 µg/mL: PC-3, 16 μg/mL compound, 72 h, read-out: IR (inhibition rate); for IC50: PC-3, 72 h, MTT
Procedure: as §1, §2

SK-OV-3 = test: MTT solid tumor cell proliferation inhibition, SK-OV-3; assay type: cell-based, human; conditions: Homo sapiens; for inhibition at 16 µg/mL: SK-OV-3, 16 μg/mL compound, 72 h, read-out: IR (inhibition rate); for IC50: SK-OV-3, 72 h, MTT
Procedure: as §1, §2

MG 63 = test: MTT solid tumor cell proliferation inhibition, MG 63; assay type: cell-based, human; conditions: for IC50: Homo sapiens, MG 63, 72 h, MTT; for IR (inhibition rate): MG 63, 16 μg/mL compound, 72 h
Procedure: as §1, §2

Hep G2 = test: MTT solid tumor cell proliferation inhibition, Hep G2; assay type: cell-based; conditions: Homo sapiens, HepG2; for inhibition at 16 µg/mL: Hep G2, 16 μg/mL compound, 72 h, read-out: IR (inhibition rate); for IC50: Hep G2, 72 h, MTT
Procedure: as §1, §2

Hela = test: MTT solid tumor cell proliferation inhibition, Hela; assay type: cell-based, human; conditions: Homo sapiens, Hela, 72 h; for inhibition at 16 µg/mL: 16 μg/mL compound, read-out: IR (inhibition rate); for IC50: MTT
Procedure: as §1, §2

Kasumi-1 = test: MTT leukemia cell proliferation inhibition, Kasumi-1; assay type: cell-based; conditions: Homo sapiens; for inhibition at 16 µg/mL: Kasumi-1, 16 μg/mL compound, 72 h, read-out: IR (inhibition rate); for IC50: Kasumi-1, 72 h, MTT
Source text: (§4) Leukemia cell lines: leukemia cell lines: K562/adr (drug-resistant, chronic myeloid leukemia, CML), NB4 (acute promyelocytic leukemia, AML), Kasumi-1 (acute myeloid leukemia M2 type, AML-M2), Jurkat (acute lymphoblastic leukemia, ALL), all of which are donated by Cancer Research Institute of Zhejiang University, China; and H9 (acute lymphoblastic leukemia, ALL), which is purchased from China Center for Type Culture Collection (CCTCC).
(§5) Reagents: The standard sample of oleanolic acid (OA) is purchased from Hua Kang Pharmaceutical Raw Material Factory, Shifang City, Sichuan, China; and the amidated oleanolic acid derivatives are prepared according to the present invention.
as §3

H9 = test: MTT leukemia cell proliferation inhibition, H9; assay type: cell-based, human; conditions: Homo sapiens; for inhibition at 16 µg/mL: H9, 16 μg/mL compound, 72 h, read-out: IR (inhibition rate); for IC50: H9, 72 h, MTT
Source text: as §4, §5, §3

RKO = test: MTT solid tumor cell proliferation inhibition, RKO; assay type: cell-based; conditions: Homo sapiens, 72 h; for inhibition at 16 µg/mL: 16 μg/mL compound, read-out: IR (inhibition rate); for IC50: MTT
Procedure: as §1, §2

NB4 = test: MTT leukemia cell proliferation inhibition, NB4; assay type: cell-based; conditions: Homo sapiens, NB-4; for inhibition at 16 µg/mL: NB4, 16 μg/mL compound, 72 h, read-out: IR (inhibition rate); for IC50: NB4, 72 h, MTT
Source text: as §4, §5, §3

K562/adr = test: MTT leukemia cell proliferation inhibition, K562/adr; assay type: cell-based; conditions: Homo sapiens, 72 h; for inhibition at 16 µg/mL: 16 μg/mL compound, read-out: IR (inhibition rate); for IC50: MTT
Source text: as §4, §5, §3

CNE = test: MTT solid tumor cell proliferation inhibition, CNE; assay type: cell-based, human; conditions: Homo sapiens, CNE, 72 h; for inhibition at 16 µg/mL: 16 μg/mL compound, read-out: IR (inhibition rate); for IC50: MTT
Procedure: as §1, §2

Becap37 = test: MTT solid tumor cell proliferation inhibition, Becap37; assay type: cell-based; conditions: Homo sapiens; for inhibition at 16 µg/mL: Becap37, 16 μg/mL compound, 72 h, read-out: IR (inhibition rate); for IC50: Becap37, 72 h, MTT
Procedure: as §1, §2

Jurkat = test: MTT leukemia cell proliferation inhibition, Jurkat; assay type: cell-based; conditions: Homo sapiens, 72 h; for inhibition at 16 µg/mL: 16 μg/mL compound, read-out: IR (inhibition rate); for IC50: MTT
Source text: as §4, §5, §3

SMILES: CC1(C)CC[C@]2(NC(=O)c3ccccc3)CC[C@]3(C)C(=CC[C@@H]4[C@@]5(C)CC[C@H](O)C(C)(C)[C@@H]5CC[C@]43C)[C@@H]2C1 [BS-OA-101]
- inhibition at 16 µg/mL (MGC803): 33.2%
- IC50 (MGC803): > 16 µg/mL
- inhibition at 16 µg/mL (A549): 37.6%
- IC50 (A549): > 16 µg/mL
- inhibition at 16 µg/mL (RPMI8226): 97.5%
- IC50 (RPMI8226): 6.49 µg/mL (≈ 12.2 µM)
- inhibition at 16 µg/mL (U87 MG): 36.4%
- IC50 (U87 MG): > 16 µg/mL
- inhibition at 16 µg/mL (Hep-2): 7.5%
- IC50 (Hep-2): > 16 µg/mL
- inhibition at 16 µg/mL (PANC-1): 20.6%
- IC50 (PANC-1): > 16 µg/mL
- inhibition at 16 µg/mL (CaES-17): 25.8%
- IC50 (CaES-17): > 16 µg/mL
- inhibition at 16 µg/mL (PC-3): 45.7%
- IC50 (PC-3): 19.9 µg/mL (≈ 37.4 µM)
- inhibition at 16 µg/mL (SK-OV-3): 39.7%
- IC50 (SK-OV-3): > 16 µg/mL
- IC50 (MG 63): > 16 µg/mL
- IR (inhibition rate) (MG 63): 17.3%
- inhibition at 16 µg/mL (Hep G2): 16.1%
- IC50 (Hep G2): > 16 µg/mL
- inhibition at 16 µg/mL (Hela): 57%
- IC50 (Hela): 15.8 µg/mL (≈ 29.8 µM)
- inhibition at 16 µg/mL (Kasumi-1): 53.8%
- IC50 (Kasumi-1): 15.4 µg/mL (≈ 29 µM)
- inhibition at 16 µg/mL (H9): 58.7%
- IC50 (H9): 14 µg/mL (≈ 26.3 µM)
- inhibition at 16 µg/mL (RKO): 22.5%
- IC50 (RKO): > 16 µg/mL
- inhibition at 16 µg/mL (NB4): 96.1%
- IC50 (NB4): 8.2 µg/mL (≈ 15.4 µM)
- inhibition at 16 µg/mL (K562/adr): 88.7%
- IC50 (K562/adr): 6.29 µg/mL (≈ 11.8 µM)
- inhibition at 16 µg/mL (CNE): 36.2%
- IC50 (CNE): > 16 µg/mL
- inhibition at 16 µg/mL (Becap37): 18.1%
- IC50 (Becap37): > 16 µg/mL
- inhibition at 16 µg/mL (Jurkat): 30%
- IC50 (Jurkat): > 16 µg/mL

SMILES: COc1cccc(C(=O)N[C@]23CCC(C)(C)C[C@H]2C2=CC[C@@H]4[C@@]5(C)CC[C@H](O)C(C)(C)[C@@H]5CC[C@@]4(C)[C@]2(C)CC3)c1 [BS-OA-103]
- inhibition at 16 µg/mL (MGC803): 7%
- IC50 (MGC803): > 16 µg/mL
- inhibition at 16 µg/mL (A549): 29.8%
- IC50 (A549): > 16 µg/mL
- inhibition at 16 µg/mL (RPMI8226): 90.2%
- IC50 (RPMI8226): 9.63 µg/mL (≈ 17.1 µM)
- inhibition at 16 µg/mL (U87 MG): 3.7%
- IC50 (U87 MG): > 16 µg/mL
- inhibition at 16 µg/mL (Hep-2): 10.6%
- IC50 (Hep-2): > 16 µg/mL
- inhibition at 16 µg/mL (PANC-1): 33.7%
- IC50 (PANC-1): > 16 µg/mL
- inhibition at 16 µg/mL (CaES-17): -5.9%
- IC50 (CaES-17): > 16 µg/mL
- inhibition at 16 µg/mL (PC-3): 24.5%
- IC50 (PC-3): > 16 µg/mL
- inhibition at 16 µg/mL (SK-OV-3): 17.2%
- IC50 (SK-OV-3): > 16 µg/mL
- IC50 (MG 63): > 16 µg/mL
- IR (inhibition rate) (MG 63): −25.4%
- inhibition at 16 µg/mL (Hep G2): 8%
- IC50 (Hep G2): > 16 µg/mL
- inhibition at 16 µg/mL (Hela): 38.4%
- IC50 (Hela): > 16 µg/mL
- inhibition at 16 µg/mL (Kasumi-1): 19.9%
- IC50 (Kasumi-1): > 16 µg/mL
- inhibition at 16 µg/mL (H9): 34.1%
- IC50 (H9): > 16 µg/mL
- inhibition at 16 µg/mL (RKO): -11.7%
- IC50 (RKO): > 16 µg/mL
- inhibition at 16 µg/mL (NB4): 48.5%
- IC50 (NB4): 16 µg/mL (≈ 28.5 µM)
- inhibition at 16 µg/mL (K562/adr): 87.3%
- IC50 (K562/adr): 5.7 µg/mL (≈ 10.1 µM)
- inhibition at 16 µg/mL (CNE): 26%
- IC50 (CNE): > 16 µg/mL
- inhibition at 16 µg/mL (Becap37): 4.6%
- IC50 (Becap37): > 16 µg/mL
- inhibition at 16 µg/mL (Jurkat): -2.5%
- IC50 (Jurkat): > 16 µg/mL
